Literature values as cited in PMC7643960 (PLoS ONE, 2020).

Test system: healthy horses
Conditions: 1% NVX-207 twice a day for seven consecutive days, eight healthy horses; cited from earlier work

In the case of `C=C(C)[C@@H]1CC[C@]2(C(=O)O)CC[C@]3(C)[C@H](CC[C@@H]4[C@@]5(C)CC[C@H](O)C(C)(C)[C@@H]5CC[C@]43C)[C@@H]12` [betulinic acid, reference compound], the “tolerability after topical application” value is listed as “no compound-related local adverse effects”.
